The results in this text go back to US10821100B2, “Triazolone compounds as mPGES-1 inhibitors” (Glenmark Pharmaceuticals S.A., priority 2012, dated 2020).

The experiment has as its target T1, Recombinant human mPGES-1 (Homo sapiens, UniProt O14684).
T1 construct: made in house; host or cells: CHO cells (crude microsomal fractions)
T1 sequence (O14684 1-152): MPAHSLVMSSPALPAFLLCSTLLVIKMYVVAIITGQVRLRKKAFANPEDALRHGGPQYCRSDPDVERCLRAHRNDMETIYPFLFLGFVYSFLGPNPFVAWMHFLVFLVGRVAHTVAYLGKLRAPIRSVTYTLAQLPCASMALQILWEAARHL
Nature of the experiment: In-vitro screening of mPGES-1 inhibitors (inhibition of PGE2 formation from PGH2, HTRF detection). The experiment is classed as biochemical. As to conditions: mPGES-1 enzyme; for inhibition at 1 µM: 1 μM test compound, read-out: Percentage inhibition at 1 μM; for inhibition at 1 µM / inhibition at 10 µM: crude microsomal fractions; for inhibition at 10 µM: 10 μM test compound, read-out: Percentage inhibition at 10 μM; for IC50: class symbols. The text has this:
In-Vitro Protocol for Screening of mPGES-1 Inhibitors: mPGES-1 (Microsomal prostaglandin E synthase-1) is a microsomal enzyme that converts endoperoxide substrate PGH2 (prostaglandin H2) to product PGE2 (prostaglandin E2) by isomerization in the presence of reduced glutathione (GSH). mPGES-1 inhibitors were screened by assessing their ability to inhibit formation of PGE2 from PGH2 in the presence of mPGES-1 using an anti-PGE2 antibody based detection method. Recombinant human mPGES-1 was generated in-house by expression in CHO cells (Ouellet M et al. (2002), Protein Expression and Purification 26: 489-495). The assay was set up using crude microsomal fractions at a protein concentration of 40-60 μg/mL. Test compounds were prepared in 100% dimethyl sulfoxide (DMSO) to obtain 20 mM stock solution and then diluted using assay buffer comprising 0.1 M Potassium phosphate buffer with 2 mM EDTA. The final concentration of DMSO in the reaction was 0.5% (v/v). Negative controls were comprised of all assay reagents except the enzyme. Positive controls were comprised of the enzyme reaction in the absence of any inhibitor. Test compounds were incubated for 10 minutes in assay buffer containing 2.5 mM GSH and mPGES-1 enzyme followed by addition of PGH2 at a concentration of 15 μM for 1 minute. The reaction was stopped by addition of Stannous chloride (11 mg/ml) and PGE2 levels were measured ([…] et al. (2005), Journal of Biomolecular Screening 10(6) 599-605; Goedken R E et al. (2008), Journal of Biomolecular Screening 13 (7): 619-625) by HTRF kit (CisBio)). Inhibition of mPGES-1 enzyme activity was measured using the percent of reaction occurring in the positive control. Concentration response curves were plotted using percent inhibition of maximum enzyme reaction. The IC50 value was calculated from the concentration response curve by nonlinear regression analysis using GraphPad PRISM software.
(In TR-FRET formats the signal depends on donor and acceptor labels being close together.)

The structures appear in SMILES notation.

Consider `O=C(NCc1ccc(Cl)c(-n2nc(-c3ccc(C#Cc4cccc(Cl)c4F)cc3F)[nH]c2=O)c1)C1CC1` [Example-81, N-(4-Chloro-3-(3-(4-((3-chloro-2-fluorophenyl)ethynyl)-2-fluorophenyl)-5-oxo-4,5-dihydro-1H-1,2,4-triazol-1-yl)benzyl)cyclopropanecarboxamide], for which the inhibition (commonly the share of the control response that was lost under treatment) at 1 µM stood at 99.8%; the inhibition at 10 µM came to 98%; the IC50 – broadly, the point on the concentration scale where inhibition reaches its midpoint – was under 50 nM.

As to `CC1(C)CCC(n2nc(-c3cc(CNC(=O)C(F)(F)F)c(F)cc3Cl)[nH]c2=O)CC1` [Example-124, N-(4-chloro-2-fluoro-5-(4,5-dihydro-1-(4,4-dimethylcyclohexyl)-5-oxo-1H-1,2,4-triazol-3-yl)benzyl)-2,2,2-trifluoroacetamide], the inhibition at 1 µM is 28% and the inhibition at 10 µM was 89%.

Turning to `CC(C)(C)C(=O)NCc1cc(-c2nn(-c3ccc(Cl)cc3)c(=O)[nH]2)c(Cl)cc1F` [Example-126, N-(4-Chloro-5-(1-(4-chlorophenyl)-4,5-dihydro-5-oxo-1H-1,2,4-triazol-3-yl)-2-fluorobenzyl)pivalamide], the inhibition at 1 µM is 100%, the inhibition at 10 µM turned out to be 99.3% and the IC50 is under 50 nM.

On to `O=C(Nc1cc(C(F)(F)F)ccc1F)c1ccc(-n2nc(-c3c(F)cccc3Cl)[nH]c2=O)cc1` [Example-34, 4-(3-(2-Chloro-6-fluorophenyl)-5-oxo-4,5-dihydro-1H-1,2,4-triazol-1-yl)-N-(2-fluoro-5-(trifluoromethyl)phenyl)benzamide], for which the inhibition at 1 µM turned out to be 70.7% and the inhibition at 10 µM was 92.3%.

As for `COc1cc(-n2nc(-c3c(F)cccc3Cl)[nH]c2=O)ccc1C#Cc1cccc(Cl)c1F` [Example-60, 1-(4-((3-Chloro-2-fluorophenyl)ethynyl)-3-methoxyphenyl)-3-(2-chloro-6-fluorophenyl)-1H-1,2,4-triazol-5(4H)-one], the inhibition at 1 µM was determined as 95.4%, the inhibition at 10 µM is 93.1% and the IC50 was under 50 nM.

In the case of `COc1cc(-n2nc(-c3c(F)cccc3Cl)[nH]c2=O)ccc1C#Cc1ccc(C(F)(F)F)cc1Cl` [Example-61, 1-(4-((2-Chloro-4-(trifluoromethyl)phenyl)ethynyl)-3-methoxyphenyl)-3-(2-chloro-6-fluorophenyl)-1H-1,2,4-triazol-5(4H)-one], the inhibition at 1 µM is 92.4%, the inhibition at 10 µM was 96.8% and the IC50 was under 50 nM.

Regarding `COc1cc(-c2nn(-c3c(Cl)cccc3Cl)c(=O)[nH]2)ccc1C(=O)Nc1ccc(C)cc1Cl` [Example-179, N-(2-Chloro-4-methylphenyl)-4-(1-(2,6-dichlorophenyl)-4,5-dihydro-5-oxo-1H-1,2,4-triazol-3-yl)-2-methoxybenzamide], the inhibition at 1 µM was found to be 50.6% and the inhibition at 10 µM came to 95.2%.

With `COc1cc(-c2nn(-c3c(Cl)cccc3Cl)c(=O)[nH]2)ccc1C#Cc1ccc(C(F)(F)F)cc1Cl` [Example-75, 3-(4-((2-Chloro-4-(trifluoromethyl)phenyl)ethynyl)-3-methoxyphenyl)-1-(2,6-dichlorophenyl)-1H-1,2,4-triazol-5(4H)-one], the inhibition at 1 µM came out at 99.1%, the inhibition at 10 µM is 98.3% and the IC50 is under 50 nM.

As for `CC(C)(C)C(=O)NCc1ccc(Cl)c(-c2nn(-c3ccc(C(F)(F)F)c(F)c3)c(=O)[nH]2)c1F` [Example-173, N-(4-Chloro-2-fluoro-3-(1-(3-fluoro-4-(trifluoromethyl)phenyl)-4,5-dihydro-5-oxo-1H-1,2,4-triazol-3-yl)benzyl)pivalamide], the inhibition at 1 µM was found to be 96.8%, the inhibition at 10 µM came to 99% and the IC50 is under 50 nM.

On to `COc1cc(-n2nc(-c3c(F)cccc3Cl)[nH]c2=O)ccc1-c1nc(-c2ccc(Cl)cc2)no1` [Example-40, 3-(2-Chloro-6-fluorophenyl)-1-(4-(3-(4-chlorophenyl)-1,2,4-oxadiazol-5-yl)-3-methoxyphenyl)-1H-1,2,4-triazol-5(4H)-one], for which the inhibition at 1 µM worked out at 89%, the inhibition at 10 µM worked out at 90.7% and the IC50 is under 50 nM.

As to `Cc1ccc(-n2nc(-c3cc(CNC(=O)C(C)(C)C)ccc3Cl)[nH]c2=O)cc1C(F)(F)F` [Example-158, N-(4-Chloro-3-(1-(3-(trifluoromethyl)-4-methylphenyl)-4,5-dihydro-5-oxo-1H-1,2,4-triazol-3-yl)benzyl)pivalamide], the inhibition at 1 µM turned out to be 99%, the inhibition at 10 µM was 99.7% and the IC50 was under 50 nM.

Regarding `COc1ccc(-n2nc(-c3c(Cl)ccc(CNC(=O)C(C)(C)C)c3F)[nH]c2=O)cc1` [Example-86, N-(4-Chloro-2-fluoro-3-(1-(4-methoxyphenyl)-5-oxo-4,5-dihydro-1H-1,2,4-triazol-3-yl)benzyl)pivalamide], the inhibition at 1 µM was 79.9%, the inhibition at 10 µM stood at 96.7% and the IC50 was over 100 nM.

Consider `O=C(NCc1ccc(F)cc1C(F)(F)F)c1ccc(-n2nc(-c3c(F)cccc3Cl)[nH]c2=O)cc1` [Example-28, 4-(3-(2-Chloro-6-fluorophenyl)-5-oxo-4,5-dihydro-1H-1,2,4-triazol-1-yl)-N-(4-fluoro-2-(trifluoromethyl)benzyl)benzamide], for which the inhibition at 1 µM amounted to 72.2% and the inhibition at 10 µM is 95.5%.

On to `CC(C)(C)C(=O)NCc1cc(-n2nc(-c3ccc(C#CC4CC4)cc3)[nH]c2=O)c(Cl)cc1F` [Example-136, N-(4-Chloro-5-(3-(4-(2-cyclopropylethynyl)phenyl)-4,5-dihydro-5-oxo-1,2,4-triazol-1-yl)-2-fluorobenzyl)pivalamide], for which the inhibition at 1 µM worked out at 95.1%, the inhibition at 10 µM is 94.8% and the IC50 is under 50 nM.

For `O=C(NCc1ccc(Cl)c(-n2nc(-c3ccc(C#Cc4ccc(Cl)cc4F)cc3F)[nH]c2=O)c1)C1CC1` [Example-79, N-(4-Chloro-3-(3-(4-((4-chloro-2-fluorophenyl)ethynyl)-2-fluorophenyl)-5-oxo-4,5-dihydro-1H-1,2,4-triazol-1-yl)benzyl)cyclopropanecarboxamide], the inhibition at 1 µM came to 99.1%, the inhibition at 10 µM was determined as 97.1% and the concentration for half-maximal inhibition (IC50) is under 50 nM.

With `Cc1ccc(CNC(=O)C(C)C)c(C)c1-c1nn(-c2ccc(C#CC(C)(C)C)cc2)c(=O)[nH]1` [Example-164, N-(3-(4,5-Dihydro-1-(4-(3,3-dimethylbut-1-ynyl)phenyl)-5-oxo-1H-1,2,4-triazol-3-yl)-2,4-dimethylbenzyl)isobutyramide], the inhibition at 1 µM is 98.3%, the inhibition at 10 µM was found to be 97.2% and the IC50 is under 50 nM.

`O=c1[nH]c(-c2c(F)cccc2Cl)nn1-c1ccc(C#Cc2cnc(N3CCOCC3)nc2)cc1` [Example-15, 3-(2-Chloro-6-fluorophenyl)-1-(4-((2-morpholinopyrimidin-5-yl)ethynyl)phenyl)-1H-1,2,4-triazol-5(4H)-one]: the inhibition at 1 µM worked out at 64.2% and the inhibition at 10 µM is 83.8%.

Turning to `COc1ccc(-n2nc(-c3c(F)cccc3Cl)[nH]c2=O)cc1C(=O)NC1(c2ccccc2C(F)(F)F)CC1` [Example-21, 5-[3-(2-Chloro-6-fluorophenyl)-5-oxo-4,5-dihydro-1H-1,2,4-triazol-1-yl]-2-methoxy-N-{1-[2-(trifluoromethyl)phenyl]cyclopropyl}benzamide], the inhibition at 1 µM was determined as 76.1% and the inhibition at 10 µM was determined as 91.8%.

For `COc1cc(-n2nc(-c3c(Cl)cccc3C#N)[nH]c2=O)ccc1C(=O)Nc1ccc(F)c(C(F)(F)F)c1` [Example-73, 4-(3-(2-Chloro-6-cyanophenyl)-5-oxo-4,5-dihydro-1H-1,2,4-triazol-1-yl)-N-(4-fluoro-3-(trifluoromethyl)phenyl)-2-methoxybenzamide], the inhibition at 1 µM worked out at 92.4%, the inhibition at 10 µM amounted to 92.4% and the IC50 is under 50 nM.

Consider `COc1cc(-n2nc(-c3c(C)cccc3Cl)[nH]c2=O)ccc1C(=O)Nc1cccc(C(F)(F)F)c1` [Example-56, 4-(3-(2-Chloro-6-methylphenyl)-5-oxo-4,5-dihydro-1H-1,2,4-triazol-1-yl)-2-methoxy-N-(3-(trifluoromethyl)phenyl)benzamide], for which the inhibition at 1 µM turned out to be 98.1%, the inhibition at 10 µM was found to be 98.5% and the IC50 is under 50 nM.
